In patent US8592415B2, “Selective kinase inhibitors” (Reaction Biology Corp., priority 2009, dated 2013):

Assays:
Type in all cases: biochemical
TYK2 = TYK2 (Homo sapiens (Human), UniProt P29597); test: In vitro JAK kinase enzymatic assay (TYK2)
Procedure: (§1) The JAK3 kinase is recombinant human protein (catalytic domain, amino acids 781-1124 with GST-tag), expressed in insect cells (Invitrogen Catalog PV3855). The substrate is poly-glutamic acid-tyrosin peptide, Poly-(GT) (4:1) (Sigma-Aldrich, catalog P7244). [γ-^33P]-ATP is purchased from Perkin Elmer (catalog NEG602H001MC) (EasyTides). Kinase reaction buffer is 100 mM HEPES (pH 7.5), 20 mM MgCl2, 2 mM EGTA, 0.02% Brij 35. The JAK1 (Invitrogen Catalog PV4774), JAK2 (Invitrogen Catalog PV4210) and TYK2 Invitrogen Catalog PV4790) enzymatic assays are performed in the similar way. JAK1 and JAK2 substrate is Poly-(GT) (4:1), but TYK2 substrate is peptide with sequences of […]. The reaction is carried for 2 hours at room temperature. After the reactions are finished or stopped, portion or all the reaction mixtures are transferred onto filter paper P81 Phosphocellulose paper (Whatman catalog 3698-915) for binding the final radioisotope labeled products. The unreacted phosphate are washed away without interfering with the detection of real phosphorylated products. The final product can be detected by instruments such as scintillation counter, top counter or phosphoimager. The enzymatic assays can also performed in assays described those described in the art [e.g., Ma H et al, Expert Opin. Drug Discov. 3, 607-621 (2008); Olive D M, Expert Rev Proteomics, 1, 327-341 (2004)].
(§2) Signal=Bottom+(Top−Bottom)/(1+10^((Log(IC50)−Log [I])*Hill Slope) Bottom and Top refer to the post and pre-transition baselines, respectively.

JAK3 = JAK3 (Homo sapiens (Human), UniProt P52333); test: In vitro JAK kinase enzymatic assay (JAK3)
Procedure: as §1, §2

JAK1 = JAK1 (Homo sapiens, UniProt P23458); test: In vitro JAK kinase enzymatic assay (JAK1)
Procedure: as §1, §2

JAK2 [1] = biological target: JAK2 (Homo sapiens, UniProt O60674); test: In vitro JAK kinase enzymatic assay (JAK2)
Procedure: as §1, with “The” for “The JAK3 kinase is recombinant human protein (catalytic domain, amino acids 781-1124 with GST-tag), expressed in insect cells (Invitrogen Catalog PV3855). The”, “After the reactions are finished or stopped, portion or all the reaction mixtures are transferred onto filter paper P81 Phosphocellulose paper (Whatman catalog 3698-915) for binding the final radioisotope labeled products.” left out, “Discov.” for “Discov. 3, 607-621 (2008); Olive D M, Expert Rev Proteomics, 1, 327-341 (2004)].”
as §2

JAK2 [2] = test: In vitro JAK kinase enzymatic assay (JAK2)
Procedure: as §1, with “The” for “The JAK3 kinase is recombinant human protein (catalytic domain, amino acids 781-1124 with GST-tag), expressed in insect cells (Invitrogen Catalog PV3855). The”, “After the reactions are finished or stopped, portion or all the reaction mixtures are transferred onto filter paper P81 Phosphocellulose paper (Whatman catalog 3698-915) for binding the final radioisotope labeled products.” left out, “Discov.” for “Discov. 3, 607-621 (2008); Olive D M, Expert Rev Proteomics, 1, 327-341 (2004)].”
as §2

TYK2, sequence (P29597 whole entry, the tested form may be a part): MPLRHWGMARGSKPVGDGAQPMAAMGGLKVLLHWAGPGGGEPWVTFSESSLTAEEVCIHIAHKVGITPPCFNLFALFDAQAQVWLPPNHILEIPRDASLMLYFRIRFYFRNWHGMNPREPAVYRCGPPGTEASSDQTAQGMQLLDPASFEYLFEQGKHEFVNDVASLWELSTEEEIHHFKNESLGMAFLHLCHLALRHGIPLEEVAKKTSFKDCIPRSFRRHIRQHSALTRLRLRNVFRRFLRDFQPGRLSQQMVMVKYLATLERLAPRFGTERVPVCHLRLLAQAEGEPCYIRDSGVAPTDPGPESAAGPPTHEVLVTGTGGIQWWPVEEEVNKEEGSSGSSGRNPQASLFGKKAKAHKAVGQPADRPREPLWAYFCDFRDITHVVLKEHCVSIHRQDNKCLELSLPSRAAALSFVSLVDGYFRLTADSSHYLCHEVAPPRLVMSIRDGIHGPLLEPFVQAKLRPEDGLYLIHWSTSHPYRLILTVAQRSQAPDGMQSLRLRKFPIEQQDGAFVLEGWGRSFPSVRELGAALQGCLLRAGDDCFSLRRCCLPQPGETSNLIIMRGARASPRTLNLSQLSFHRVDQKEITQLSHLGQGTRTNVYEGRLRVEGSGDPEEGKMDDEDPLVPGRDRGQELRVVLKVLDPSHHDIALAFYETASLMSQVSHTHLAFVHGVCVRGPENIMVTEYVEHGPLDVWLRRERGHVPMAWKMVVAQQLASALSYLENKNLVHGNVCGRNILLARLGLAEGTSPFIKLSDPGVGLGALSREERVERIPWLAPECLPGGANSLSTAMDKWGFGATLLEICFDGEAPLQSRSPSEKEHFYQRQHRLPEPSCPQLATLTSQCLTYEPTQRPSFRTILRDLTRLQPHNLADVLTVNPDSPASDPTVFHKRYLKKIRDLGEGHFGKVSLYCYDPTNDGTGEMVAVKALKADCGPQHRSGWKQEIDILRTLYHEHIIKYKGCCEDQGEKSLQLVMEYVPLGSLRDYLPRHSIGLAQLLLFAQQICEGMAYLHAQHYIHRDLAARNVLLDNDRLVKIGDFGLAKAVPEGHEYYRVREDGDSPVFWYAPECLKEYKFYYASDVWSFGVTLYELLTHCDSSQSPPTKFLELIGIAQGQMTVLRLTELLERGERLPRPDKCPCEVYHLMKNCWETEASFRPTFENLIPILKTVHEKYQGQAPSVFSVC
JAK2 (Homo sapiens, UniProt O60674), sequence (O60674 whole entry, looked up, the tested form may be a part): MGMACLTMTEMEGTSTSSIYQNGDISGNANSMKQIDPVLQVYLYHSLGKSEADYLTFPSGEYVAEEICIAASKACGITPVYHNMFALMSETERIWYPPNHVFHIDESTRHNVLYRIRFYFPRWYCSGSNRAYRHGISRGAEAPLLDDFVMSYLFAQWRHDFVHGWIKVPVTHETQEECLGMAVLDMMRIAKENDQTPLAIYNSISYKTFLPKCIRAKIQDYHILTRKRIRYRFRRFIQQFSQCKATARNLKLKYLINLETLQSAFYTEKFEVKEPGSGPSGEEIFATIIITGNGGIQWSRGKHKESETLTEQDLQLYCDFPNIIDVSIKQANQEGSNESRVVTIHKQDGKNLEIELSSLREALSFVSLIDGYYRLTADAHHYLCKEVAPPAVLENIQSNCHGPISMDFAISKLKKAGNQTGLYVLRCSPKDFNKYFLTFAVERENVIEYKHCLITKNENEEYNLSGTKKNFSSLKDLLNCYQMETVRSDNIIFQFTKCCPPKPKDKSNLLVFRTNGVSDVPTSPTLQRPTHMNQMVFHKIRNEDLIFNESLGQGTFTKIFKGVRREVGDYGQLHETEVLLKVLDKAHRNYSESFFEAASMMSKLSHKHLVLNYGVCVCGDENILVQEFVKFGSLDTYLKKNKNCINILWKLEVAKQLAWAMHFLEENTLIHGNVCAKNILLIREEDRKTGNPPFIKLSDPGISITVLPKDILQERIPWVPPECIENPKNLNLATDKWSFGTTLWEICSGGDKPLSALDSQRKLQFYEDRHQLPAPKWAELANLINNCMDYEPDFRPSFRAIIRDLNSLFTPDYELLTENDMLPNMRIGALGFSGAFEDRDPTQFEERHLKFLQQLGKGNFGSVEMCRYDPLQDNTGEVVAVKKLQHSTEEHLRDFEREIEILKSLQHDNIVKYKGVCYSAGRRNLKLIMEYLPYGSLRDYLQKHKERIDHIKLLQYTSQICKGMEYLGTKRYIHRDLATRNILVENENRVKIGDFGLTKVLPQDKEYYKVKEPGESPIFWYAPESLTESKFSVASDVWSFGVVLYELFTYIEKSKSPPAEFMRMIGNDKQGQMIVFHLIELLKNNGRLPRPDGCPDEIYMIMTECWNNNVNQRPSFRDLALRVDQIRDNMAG
JAK3, sequence (P52333 781-1124): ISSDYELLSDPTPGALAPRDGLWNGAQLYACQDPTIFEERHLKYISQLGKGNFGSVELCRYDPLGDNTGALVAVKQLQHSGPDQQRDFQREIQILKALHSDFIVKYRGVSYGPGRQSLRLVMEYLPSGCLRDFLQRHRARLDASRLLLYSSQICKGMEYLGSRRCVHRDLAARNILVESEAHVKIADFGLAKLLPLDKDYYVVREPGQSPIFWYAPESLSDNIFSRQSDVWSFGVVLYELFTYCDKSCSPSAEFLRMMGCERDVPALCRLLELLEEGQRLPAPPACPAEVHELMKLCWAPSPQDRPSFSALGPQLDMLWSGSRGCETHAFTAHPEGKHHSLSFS

| IC50 (TYK2) | IC50 (JAK3) | IC50 (JAK1) | IC50 (JAK2 [1]) | IC50 (JAK2 [2]) | Compound |
| --- | --- | --- | --- | --- | --- |
| > 10 µM | > 10 µM | > 10 µM |  |  | CC(Nc1cccc(-c2cnc3ccccc3n2)c1)=C1CCOC1=O (racemic) [Example 31, (E/Z)-3-(1-(3-(quinoxalin-2-yl)phenylamino)ethylidene)dihydrofuran-2(3H)-one] |
| > 50 µM | > 50 µM | > 50 µM |  | > 50 µM | CN(C)CC(=O)Nc1cccc(-c2cnc3ccccc3n2)c1 [Example 2, N^2,N^2-dimethyl-N^1-(3-quinoxalin-2-ylphenyl)glycinamide] |
| > 20 µM | > 20 µM | > 20 µM |  | > 20 µM | O=C(CN1CCCC1)Nc1cccc(-c2cnc3ccccc3n2)c1 [Example 3, 2-pyrrolidin-1-yl-N-(3-quinoxalin-2-ylphenyl)acetamide] |
| > 50 µM | > 50 µM | > 50 µM |  | > 50 µM | O=C(CCCCl)Nc1cccc(-c2cnc3ccccc3n2)c1 [Example 5, 4-chloro-N-[3-(quinoxalin-2-yl)phenyl]butanamide] |
| > 50 µM | > 50 µM | > 50 µM | > 50 µM |  | CCC(=O)Nc1cccc(-c2cnc3ccccc3n2)c1 [Example 6, N-[3-(quinoxalin-2-yl)phenyl]propionamide] |
| > 50 µM | > 50 µM | > 50 µM |  | > 50 µM | O=C(Cn1cncn1)Nc1cccc(-c2cnc3ccccc3n2)c1 [Example 7, N-[3-(quinoxalin-2-yl)phenyl]-2-(1H-1,2,4-triazol-1-yl)acetamide] |
| > 50 µM | > 50 µM | > 50 µM |  | > 50 µM | COc1ccc(NC(=O)Nc2cccc(-c3cnc4ccccc4n3)c2)cc1 [Example 10, 1-(4-methoxyphenyl)-3-[3-(quinoxalin-2-yl)phenyl]urea] |
| > 50 µM | > 50 µM | > 50 µM |  | 24.6 µM | O=C(Nc1cccc(-c2cnc3ccccc3n2)c1)c1ccco1 [Example 12, N-[3-(quinoxalin-2-yl)phenyl]furan-2-carboxamide] |
| > 50 µM | > 50 µM | > 50 µM | 55.5 µM |  | O=S(=O)(Nc1cccc(-c2cnc3ccccc3n2)c1)c1cccs1 [Example 13, N-[3-(quinoxalin-2-yl)phenyl]thiophene-2-sulfonamide] |
| > 50 µM | > 50 µM | > 50 µM |  | 18.5 µM | CS(=O)(=O)Nc1cccc(-c2cnc3ccccc3n2)c1 [Example 15, N-[3-(quinoxalin-2-yl)phenyl]methanesulfonamide] |
| > 50 µM | > 50 µM | > 50 µM |  | > 50 µM | CN1CCN(CC(=O)Nc2cccc(-c3cnc4ccccc4n3)c2)CC1 [Example 17, 2-(4-methylpiperazin-1-yl)-N-[3-(quinoxalin-2-yl)phenyl]acetamide] |
| > 10 µM | 0.5 µM | > 10 µM | > 10 µM |  | O=C(Nc1cccc(-c2cnc3ccccc3n2)c1)C(Cl)Cl [Example 18, 2,2-dichloro-N-[3-(quinoxalin-2-yl)phenyl]acetamide] |
| > 50 µM | > 50 µM | > 50 µM | > 50 µM |  | O=C(CCCl)Nc1cccc(-c2cnc3ccccc3n2)c1 [Example 19, 3-chloro-N-[3-(quinoxalin-2-yl)phenyl]propanamide] |
| > 50 µM | 34 µM | > 50 µM |  | > 50 µM | O=C(CN1CCOCC1)Nc1cccc(-c2cnc3ccccc3n2)c1 [Example 20, 2-morpholino-N-(3-(quinoxalin-2-yl)phenyl)acetamide] |
| > 50 µM | 0.33 µM | > 50 µM | > 50 µM |  | CC(Cl)C(=O)Nc1cccc(-c2cnc3ccccc3n2)c1 (centres unmarked) [Example 21, 2-chloro-N-(3-(quinoxalin-2-yl)phenyl)propanamide] |
| > 10 µM | 0.045 µM | > 10 µM | > 10 µM |  | C=CC(=O)Nc1cccc(-c2cnc3ccccc3n2)c1 [Example 22, N-(3-(quinoxalin-2-yl)phenyl)acrylamide] |
| > 10 µM | > 10 µM | > 10 µM |  | > 10 µM | C=CCC(=O)Nc1cccc(-c2cnc3ccccc3n2)c1 [Example 23, N-(3-(quinoxalin-2-yl)phenyl)but-3-enamide] |
| > 10 µM | > 10 µM | > 10 µM |  | > 10 µM | CSCC(=O)Nc1cccc(-c2cnc3ccccc3n2)c1 [Example 25, 2-(methylthio)-N-(3-(quinoxalin-2-yl)phenyl)acetamide] |
| > 10 µM | > 10 µM | > 10 µM |  | > 10 µM | O=C(CC(=O)C(F)(F)F)Nc1cccc(-c2cnc3ccccc3n2)c1 [Example 26, 4,4,4-trifluoro-3-oxo-N-(3-(quinoxalin-2-yl)phenyl)butanamide] |
| > 10 µM | 0.0006 µM | > 10 µM |  | > 10 µM | CS(=O)(=O)OCC(=O)Nc1cccc(-c2cnc3ccccc3n2)c1 [Example 27, 2-oxo-2-(3-(quinoxalin-2-yl)phenylamino)ethyl methanesulfonate] |
| > 10 µM | 150 µM | > 10 µM |  | > 10 µM | CC(=O)OCC(=O)Nc1cccc(-c2cnc3ccccc3n2)c1 [Example 28, 2-oxo-2-(3-(quinoxalin-2-yl)phenylamino)ethyl acetate] |
| > 10 µM | > 10 µM | > 10 µM | > 10 µM |  | O=C(CO)Nc1cccc(-c2cnc3ccccc3n2)c1 [Example 29, 2-hydroxy-N-(3-(quinoxalin-2-yl)phenyl)acetamide] |
| > 10 µM | > 10 µM | > 10 µM |  | > 10 µM | CC(=O)SCC(=O)Nc1cccc(-c2cnc3ccccc3n2)c1 [Example 30, S-2-oxo-2-(3-(quinoxalin-2-yl)phenylamino)ethyl ethanethioate] |
| > 10 µM | > 10 µM | > 10 µM |  | > 10 µM | CCOC(=O)CC(=O)Nc1cccc(-c2cnc3ccccc3n2)c1 [Example 32, ethyl 3-oxo-3-(3-(quinoxalin-2-yl)phenylamino)propanoate] |
| > 10 µM | > 10 µM | > 10 µM |  | > 10 µM | O=C(CN1CCN(c2ccncc2)CC1)Nc1cccc(-c2cnc3ccccc3n2)c1 [Example 33, 2-(4-(pyridin-4-yl)piperazin-1-yl)-N-(3-(quinoxalin-2-yl)phenyl)acetamide] |
| > 10 µM | > 10 µM | > 10 µM | > 10 µM |  | O=C(CN1CCC(O)CC1)Nc1cccc(-c2cnc3ccccc3n2)c1 [Example 34, 2-(4-hydroxypiperidin-1-yl)-N-(3-(quinoxalin-2-yl)phenyl)acetamide] |
| > 20 µM | 13 µM | > 20 µM |  | > 20 µM | O=C(CN1CCNCC1)Nc1cccc(-c2cnc3ccccc3n2)c1 [Example 35, 2-(piperazin-1-yl)-N-(3-(quinoxalin-2-yl)phenyl)acetamide] |
| > 10 µM | > 10 µM | > 10 µM |  | > 10 µM | NS(=O)(=O)CCC(=O)Nc1cccc(-c2cnc3ccccc3n2)c1 [Example 36, 3-(aminosulfonyl)-N-[3-(2-quinoxalinyl)phenyl]propanamide] |

| Compound | IC50 (TYK2) | IC50 (JAK3) | IC50 (JAK1) | IC50 (JAK2 [1]) | IC50 (JAK2 [2]) |
| --- | --- | --- | --- | --- | --- |
| 1-methyl-3-[3-(quinoxalin-2-yl)phenyl]thiourea [Example 11] | > 50 µM | > 50 µM | > 50 µM | 25.5 µM |  |
| 2-[4-(4-chlorophenyl)piperazin-1-yl]-N-(3-(quinoxalin-2-yl)phenyl)acetamide [Example 4] | > 20 µM | 2.7 µM | > 20 µM | > 20 µM |  |
| N-[3-(quinoxalin-2-yl)phenyl]cyclopropanecarboxamide [Example 14] | > 50 µM | > 50 µM | > 50 µM |  |  |
